{
  "source": "patent US20250283178A1",
  "about": "“FOXC1 EXPRESSION AS A COMPLEMENTARY DIAGNOSTIC ASSAY FOR PREDICTING EFFICACY OF ONCOLOGY DRUGS AND DRUG COMBINATION REGIMENS AND METHODS FOR USE” (3N DIAGNOSTICS LTD., priority 2022, published 2025)",
  "key": {"TNBC patients": {"system": "TNBC patients", "experiment": "I-SPY2 neoadjuvant Durvalumab arm, pathologic complete response by MK167+FOXC1 predictor", "type": "in vivo, human", "conditions": "Durvalumab Arm: Olaparib+Paclitaxel+Durvalumab", "procedure": "(§1) Methods. 41 Pre-NACT tumor biopsy MK167 and FOXC1 mRNA expression values were retrospectively obtained from TNBC patients and HER2 negative ER+ breast cancer patients who had been enrolled and treated in the I-SPY2 clinical trial (Durvalumab arm: 21, Control arm: 20) and correlated with the rate of observed pathologic complete response (pCR). The area under the curve (AUC) of each model was calculated and used to determine suitable cutoff values to maximize Negative Predictive Value (NPV) and Sensitivity for pCR prediction.\nas §1, with “TNBC” for “TNBC patients and HER2 negative ER+ breast cancer”"}, "[1]": {"system": "HER2 negative ER+ breast cancer patients", "experiment": "I-SPY2 neoadjuvant Durvalumab arm, pathologic complete response by MK167+FOXC1 predictor", "type": "in vivo, human", "conditions": "FIG. 16", "procedure": "as §1"}, "ER+ breast cancer": {"system": "ER+ breast cancer", "conditions": "Kornblum et al., 2018; cited from earlier work"}, "TNBC [2]": {"system": "TNBC", "conditions": "two separate Phase II trials (Jovanovic et al., 2017; Park et al., 2018); cited from earlier work"}, "TGFβ1": {"system": "TGFβ1", "conditions": "through a GLI2 inhibitory mechanism; Didiasova et al., 2017; cited from earlier work"}, "[3]": {"system": "fibroblast activation and tumor-fibroblast crosstalk", "conditions": "Fujiwara et al., 2020; cited from earlier work"}, "[4]": {"system": "cancer-associated fibroblasts", "conditions": "Aboulkheyr Es et al., 2020; cited from earlier work"}, "[5]": {"system": "lung, liver and colon cancer", "conditions": "combination; Qin et al., 2020; cited from earlier work"}, "TNBC cells": {"system": "TNBC cells", "conditions": "cited from earlier work"}, "[6]": {"system": "ER and or PR-positive cells", "conditions": "Wang et al., 2015; cited from earlier work"}, "binding of SOX9 to FOXC1": {"system": "binding of SOX9 to FOXC1", "conditions": "Tang et al., 2020; cited from earlier work"}, "[7]": {"system": "in vitro FOXC1+ cancer model", "conditions": "concurrent treatment with Wnt signaling inhibition; Ray et al., 2015b; cited from earlier work"}, "[8]": {"system": "CXCR4-mediated invasion and metastasis", "conditions": "Pan et al., 2018; cited from earlier work"}, "prostate cancer": {"system": "prostate cancer", "conditions": "Gravina et al., 2015; cited from earlier work"}, "[9]": {"system": "cancer stem cells in AML and glioblastoma", "conditions": "Hira et al., 2020; cited from earlier work"}, "[10]": {"system": "ER+LN-breast cancer patients", "experiment": "Adjuvant chemotherapy added to adjuvant Tamoxifen, all-cause mortality (SCAN-B dataset)", "type": "in vivo, human", "conditions": "FOXC1 greater than 60th percentile or VERESCA FOXC1 IHC Score of 2; adjuvant Tamoxifen X 5 years with or without adjuvant chemotherapy", "description": "The prognostic utility of the VERESCA® FOXC1 IHC assay and the VERESCA® FOXC1Clin Criteria recurrence risk score was additionally validated in a second independent clinical trial dataset (SCAN-B) comprising 3207 breast cancer patients for whom clinical, treatment, gene expression data and outcomes data (Overall Survival) were available.\nFOXC1 expression cutoff value was 60th percentile of expression of FOXC1 mRNA on qRTPCR, 60th percentile of expression of FOXC1 mRNA on RNA-Seq, or FOXC1 Score of 2 using VERESCA® FOXC1 IHC kit. FOXC1 expression less than the 60th percentile (FOXC1<60TH % ILE) by mRNA EXPRESSION or <VERESCA® FOXC1 IHC Score of 2 predicts LOW RISK and efficacy of the current standard of care which is adjuvant Tamoxifen X 5 years) in successfully reducing disease recurrence risk, and its resultant impact on all-cause mortality, without the need for additional/adjuvant chemotherapy.\nThe ability of the VERESCA® FOXC1Clin criteria recurrence risk score to predict a statistically significant decrease in all-cause mortality rate in the 8-year period post-diagnosis in response to having received adjuvant chemotherapy in addition to adjuvant Tamoxifen therapy was validated in SCAN-B clinical trial dataset (Odds Ratio 6.477 [Cl 2.974-14.107], p=0.0000001)."}, "TNBC [11]": {"system": "TNBC", "conditions": "Raninga et al., 2020; cited from earlier work"}, "leukemia stem cells": {"system": "leukemia stem cells", "conditions": "Fukushima et al., 2016; cited from earlier work"}, "GLI2": {"system": "GLI2", "conditions": "abrogates leukemia stem cell dormancy; Sadarangani et al., 2015; cited from earlier work"}, "breast cancer": {"system": "breast cancer", "conditions": "Ginestier et al., 2010; cited from earlier work"}, "gastric cancer": {"system": "gastric cancer", "conditions": "Wang et al., 2016b; cited from earlier work"}, "[12]": {"system": "HER2-positive breast cancer", "conditions": "Singh et al., 2013, cited from earlier work"}, "[13]": {"system": "breast CSC count in preoperative tumors", "conditions": "Goldstein et al., 2020; cited from earlier work"}},
  "data": [
    {"compound": "Durvalumab", "values": [
      {"measurement": "pCR rate", "setting": "TNBC patients; predicted non-responders (MK167+FOXC1 mRNA)", "value": 0, "unit": "%"},
      {"measurement": "pCR rate", "setting": "TNBC patients; predicted responders (MK167+FOXC1 mRNA)", "value": 75, "unit": "%"},
      {"measurement": "pCR rate", "setting": "[1]; predicted non-responders", "value": 15.38, "unit": "%"},
      {"measurement": "pCR I rate", "setting": "[1]; predicted responders", "value": 38.1, "unit": "%"},
      {"measurement": "pCR II rate", "setting": "[1]; predicted responders", "value": 62.5, "unit": "%"}
    ]},
    {"compound": "CO[C@H]1C[C@@H]2CC[C@@H](C)[C@@](O)(O2)C(=O)C(=O)N2CCCC[C@H]2C(=O)O[C@H]([C@H](C)C[C@@H]2CC[C@@H](OCCO)[C@H](OC)C2)CC(=O)[C@H](C)/C=C(\\C)[C@@H](O)[C@@H](OC)C(=O)[C@H](C)C[C@H](C)/C=C/C=C/C=C/1C", "note": "[Everolimus]", "values": [
      {"measurement": "progression free survival", "setting": "ER+ breast cancer", "value": "prolong progression free survival"},
      {"measurement": "efficacy", "setting": "TNBC [2]", "value": "failed to show any demonstrable efficacy"}
    ]},
    {"compound": "Cc1ccc(=O)n(-c2ccccc2)c1", "note": "[Pirfenidone]", "values": [
      {"measurement": "fibrosis / TGFβ1", "setting": "TGFβ1", "value": "decrease fibrosis by decreasing TGFβ1"},
      {"measurement": "fibroblast activation and tumor-fibroblast crosstalk in the TME", "setting": "[3]", "value": "capable of inhibiting fibroblast activation and tumor-fibroblast crosstalk"},
      {"measurement": "immunosuppressive capacity of cancer-associated fibroblasts", "setting": "[4]", "value": "successful in reducing immunosuppressive capacity"},
      {"measurement": "therapeutic benefit of PD1/PDL1 immune checkpoint blockade", "setting": "[5]", "value": "augment the observed therapeutic benefit"}
    ]},
    {"compound": "CN(C)C/C=C/C(=O)Nc1ccc(C(=O)Nc2cccc(Nc3ncc(Cl)c(-c4c[nH]c5ccccc45)n3)c2)cc1", "note": "[THZ1]", "values": [
      {"measurement": "sensitivity of cell proliferation", "setting": "TNBC cells; CDK7 inhibitor, Wang et al., 2015", "value": "selectively sensitive"},
      {"measurement": "apoptotic cell death", "setting": "TNBC cells; Tang et al., 2020", "value": "increasing apoptotic cell death"},
      {"measurement": "effect of treatment on cells", "setting": "[6]", "value": "largely unaffected"},
      {"measurement": "binding of SOX9 to FOXC1 and enhancer/SE-associated transcription factors", "setting": "binding of SOX9 to FOXC1", "value": "significantly disrupted"}
    ]},
    {"compound": "CC(C)C[C@H](NC(=O)[C@H](Cc1ccccc1)NC(=O)c1cnccn1)B(O)O", "note": "[Bortezomib]", "values": [
      {"measurement": "emergence of resistant clones / cancer stem cell escape", "setting": "[7]", "value": "prevented the emergence of such resistant clones"}
    ]},
    {"compound": "c1cc(CN2CCCNCCNCCCNCC2)ccc1CN1CCCNCCNCCCNCC1", "note": "[Plerixafor]", "values": [
      {"measurement": "CXCR4-mediated invasion and metastasis", "setting": "[8]", "value": "successful in reversing the CXCR4-mediated invasion and metastasis"},
      {"measurement": "incidence of bone metastasis", "setting": "prostate cancer", "value": "successfully reduce the incidence of bone metastasis"},
      {"measurement": "mobilization of cancer stem cells from their niche", "setting": "[9]", "value": "mobilize cancer stem cells from their niche"}
    ]},
    {"compound": "CC/C(=C(\\c1ccccc1)c1ccc(OCCN(C)C)cc1)c1ccccc1", "note": "[Tamoxifen]", "values": [
      {"measurement": "risk of death (all-cause mortality)", "setting": "[10]", "value": "greater than 24%"}
    ]},
    {"compound": "C[C@@]12OC(=O)[C@]1([C@@H](O)[C@@H]1C=CCCC1)NC(=O)[C@@H]2CCCl", "note": "[Marizomib]", "values": [
      {"measurement": "development of lung and brain metastasis", "setting": "TNBC [11]", "value": "significantly reduced the development of lung and brain metastasis"},
      {"measurement": "tumor growth", "setting": "TNBC [11]", "value": "marked decline in tumor growth"}
    ]},
    {"compound": "CN1CC[C@@H](NC(=O)Nc2ccc(C#N)cc2)C[C@@H]1c1nc2ccccc2[nH]1", "note": "[Glasdegib]", "values": [
      {"measurement": "targeting of leukemia stem cells", "setting": "leukemia stem cells", "value": "successfully target leukemia stem cells"},
      {"measurement": "downstream effect on GLI2", "setting": "GLI2", "value": "GLI2 inhibition"}
    ]},
    {"compound": "CC(C)Cc1ccc([C@@H](C)C(=O)NS(C)(=O)=O)cc1", "note": "[Repartaxin]", "values": [
      {"measurement": "therapeutic efficacy", "setting": "breast cancer", "value": "therapeutic efficacy"},
      {"measurement": "therapeutic efficacy", "setting": "gastric cancer", "value": "therapeutic efficacy"},
      {"measurement": "breast CSC activity", "setting": "[12]", "value": "successfully reduced breast CSC activity"},
      {"measurement": "therapeutic efficacy in combination", "setting": "[12]; combined with Lapatinib", "value": "enhanced therapeutic efficacy when combined with Lapatinib"},
      {"measurement": "decrease in breast CSC count", "setting": "[13]", "value": "more than 20%"}
    ]}
  ]
}
